Values of other authors, collected in patent US20080132413A1, “Methods for the Improvement of Plant Tolerance Towards Glyphosate” (Bayer Cropscience AG, priority 2004, published 2008).

Tested on: glyphosate-resistant cotton (Roundup Ready Cotton)

Compound: O=[N+]([O-])/N=C1\NCCN1Cc1ccc(Cl)nc1 [imidacloprid]
- increase in buds compared to a control not treated with imidacloprid (glyphosate treatment at the 4 leaf stage, after 45 days): 18%
- sum of the counts of buds and bolls versus untreated control (glyphosate treatment at the 4 leaf stage, after 62 days): matched that of the untreated control
- minus of buds compared to the control not treated with imidacloprid (glyphosate treatment at the 6 leaf stage, after 40 days): 14%
- sum of the counts of buds and bolls (yield) greater than that of the untreated control (glyphosate treatment at the 6 leaf stage, after 57 days): about 14%
